Reference: PubChem BioAssay (NCI)
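Assay format: 96-well plates, 48-hour exposure. GI50 marks 50% less growth. TGI is the concentration that stops growth completely.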

Tests used:
Test in all cases: growth of human tumour cells (NCI), 48 h
SK-MEL-2 melanoma = tested on: SK-MEL-2 melanoma
OVCAR-4 ovarian = tested on: OVCAR-4 ovarian
MOLT-4 leukemia = tested on: MOLT-4 leukemia
SK-MEL-5 melanoma = tested on: SK-MEL-5 melanoma
A498 renal = tested on: A498 renal
SK-MEL-28 melanoma = tested on: SK-MEL-28 melanoma
NCI-H226 lung = tested on: NCI-H226 lung
NCI/ADR-RES ovarian = tested on: NCI/ADR-RES ovarian
NCI-H23 lung = tested on: NCI-H23 lung
T-47D breast = tested on: T-47D breast
SNB-75 CNS = tested on: SNB-75 CNS
U251 CNS = tested on: U251 CNS
UACC-257 melanoma = tested on: UACC-257 melanoma
SW-620 colon = tested on: SW-620 colon
ACHN renal = tested on: ACHN renal
DU-145 prostate = tested on: DU-145 prostate
PC-3 prostate = tested on: PC-3 prostate
M14 melanoma = tested on: M14 melanoma
IGROV1 ovarian = tested on: IGROV1 ovarian
CAKI-1 renal = tested on: CAKI-1 renal
RPMI-8226 leukemia = tested on: RPMI-8226 leukemia
CCRF-CEM leukemia = tested on: CCRF-CEM leukemia
HCC-2998 colon = tested on: HCC-2998 colon
NCI-H522 lung = tested on: NCI-H522 lung
HCT-116 colon = tested on: HCT-116 colon
HS 578T breast = tested on: HS 578T breast
SF-539 CNS = tested on: SF-539 CNS
SF-268 CNS = tested on: SF-268 CNS
LOX IMVI melanoma = tested on: LOX IMVI melanoma
NCI-H460 lung = tested on: NCI-H460 lung
OVCAR-3 ovarian = tested on: OVCAR-3 ovarian
HOP-92 NSCLC = tested on: HOP-92 NSCLC
OVCAR-8 ovarian = tested on: OVCAR-8 ovarian
COLO 205 colon = tested on: COLO 205 colon
SR leukemia = tested on: SR leukemia
BT-549 breast = tested on: BT-549 breast
RXF 393 renal = tested on: RXF 393 renal
MDA-MB-435 = tested on: MDA-MB-435
SNB-19 CNS = tested on: SNB-19 CNS
SK-OV-3 ovarian = tested on: SK-OV-3 ovarian
KM12 colon = tested on: KM12 colon
UACC-62 melanoma = tested on: UACC-62 melanoma
HL-60(TB) leukemia = tested on: HL-60(TB) leukemia
MDA-MB-231 breast = tested on: MDA-MB-231 breast
SF-295 CNS = tested on: SF-295 CNS
MCF7 breast = tested on: MCF7 breast
OVCAR-5 ovarian = tested on: OVCAR-5 ovarian
HOP-62 NSCLC = tested on: HOP-62 NSCLC
HCT-15 colon = tested on: HCT-15 colon
MALME-3M melanoma = tested on: MALME-3M melanoma
SN12C renal = tested on: SN12C renal
786-0 renal = tested on: 786-0 renal
HT29 colon = tested on: HT29 colon
EKVX NSCLC = tested on: EKVX NSCLC
TK-10 renal = tested on: TK-10 renal

C[C@@H](O)[C@H]1C(=O)N2C(C(=O)O)=C(SCCN=CN)C[C@H]12
GI50 (SK-MEL-2 melanoma): 2.54 µM
TGI (SK-MEL-2 melanoma): 7.7 µM
GI50 (OVCAR-4 ovarian): 2.21 µM
TGI (OVCAR-4 ovarian): 6.41 µM
GI50 (MOLT-4 leukemia): 2.32 µM
TGI (MOLT-4 leukemia): 6.26 µM
GI50 (SK-MEL-5 melanoma): 1.56 µM
TGI (SK-MEL-5 melanoma): 2.93 µM
GI50 (A498 renal): 0.853 µM
TGI (A498 renal): 2.44 µM
GI50 (SK-MEL-28 melanoma): 1.86 µM
TGI (SK-MEL-28 melanoma): 3.69 µM
GI50 (NCI-H226 lung): 1.55 µM
TGI (NCI-H226 lung): 3.52 µM
GI50 (NCI/ADR-RES ovarian): 1.85 µM
TGI (NCI/ADR-RES ovarian): 6.22 µM
GI50 (NCI-H23 lung): 1.81 µM
TGI (NCI-H23 lung): 4.78 µM
GI50 (T-47D breast): 2.65 µM
TGI (T-47D breast): 9.34 µM
GI50 (SNB-75 CNS): 2.12 µM
TGI (SNB-75 CNS): 5.1 µM
GI50 (U251 CNS): 2.34 µM
TGI (U251 CNS): 10.9 µM
GI50 (UACC-257 melanoma): 1.8 µM
TGI (UACC-257 melanoma): 3.78 µM
GI50 (SW-620 colon): 0.744 µM
TGI (SW-620 colon): 10.4 µM
GI50 (ACHN renal): 1.47 µM
TGI (ACHN renal): 5.8 µM
GI50 (DU-145 prostate): 2.56 µM
TGI (DU-145 prostate): 11.7 µM
GI50 (PC-3 prostate): 2.23 µM
TGI (PC-3 prostate): 7.27 µM
GI50 (M14 melanoma): 1.86 µM
TGI (M14 melanoma): 3.52 µM
GI50 (IGROV1 ovarian): 1.47 µM
TGI (IGROV1 ovarian): 9.06 µM
GI50 (CAKI-1 renal): 2.13 µM
TGI (CAKI-1 renal): 5.39 µM
GI50 (RPMI-8226 leukemia): 1.9 µM
TGI (RPMI-8226 leukemia): 6.71 µM
GI50 (CCRF-CEM leukemia): 1.66 µM
TGI (CCRF-CEM leukemia): 5.73 µM
GI50 (HCC-2998 colon): 1.81 µM
TGI (HCC-2998 colon): 3.89 µM
GI50 (NCI-H522 lung): 1.58 µM
TGI (NCI-H522 lung): 4.12 µM
GI50 (HCT-116 colon): 1.43 µM
TGI (HCT-116 colon): 6.04 µM
GI50 (HS 578T breast): 2.69 µM
TGI (HS 578T breast): 28.3 µM
GI50 (SF-539 CNS): 2.25 µM
TGI (SF-539 CNS): 6.35 µM
GI50 (SF-268 CNS): 1.73 µM
TGI (SF-268 CNS): 5.36 µM
GI50 (LOX IMVI melanoma): 1.44 µM
TGI (LOX IMVI melanoma): 3.97 µM
GI50 (NCI-H460 lung): 1.58 µM
TGI (NCI-H460 lung): 5.73 µM
GI50 (OVCAR-3 ovarian): 2.95 µM
TGI (OVCAR-3 ovarian): 84.1 µM
GI50 (HOP-92 NSCLC): 1.8 µM
TGI (HOP-92 NSCLC): 5.2 µM
GI50 (OVCAR-8 ovarian): 1.58 µM
TGI (OVCAR-8 ovarian): 32.5 µM
GI50 (COLO 205 colon): 1.38 µM
TGI (COLO 205 colon): 3.22 µM
GI50 (SR leukemia): 1.56 µM
TGI (SR leukemia): 4.94 µM
GI50 (BT-549 breast): 2.33 µM
TGI (BT-549 breast): 7.6 µM
GI50 (RXF 393 renal): 1.55 µM
TGI (RXF 393 renal): 3.58 µM
GI50 (MDA-MB-435): 2.38 µM
TGI (MDA-MB-435): 6.01 µM
GI50 (SNB-19 CNS): 2.19 µM
TGI (SNB-19 CNS): 8.49 µM
GI50 (SK-OV-3 ovarian): 1.38 µM
TGI (SK-OV-3 ovarian): 15.8 µM
GI50 (KM12 colon): 1.48 µM
TGI (KM12 colon): 11.4 µM
GI50 (UACC-62 melanoma): 1.72 µM
TGI (UACC-62 melanoma): 3.33 µM
GI50 (HL-60(TB) leukemia): 2.45 µM
TGI (HL-60(TB) leukemia): 6.15 µM
GI50 (MDA-MB-231 breast): 2.16 µM
TGI (MDA-MB-231 breast): 8.04 µM
GI50 (SF-295 CNS): 2.67 µM
TGI (SF-295 CNS): 7.5 µM
GI50 (MCF7 breast): 2.89 µM
TGI (MCF7 breast): 11.2 µM
GI50 (OVCAR-5 ovarian): 2.91 µM
TGI (OVCAR-5 ovarian): 9.44 µM
GI50 (HOP-62 NSCLC): 1.85 µM
TGI (HOP-62 NSCLC): 5.82 µM
GI50 (HCT-15 colon): 2.96 µM
TGI (HCT-15 colon): 11.1 µM
GI50 (MALME-3M melanoma): 1.69 µM
TGI (MALME-3M melanoma): 3.33 µM
GI50 (SN12C renal): 0.971 µM
TGI (SN12C renal): 9.47 µM
GI50 (786-0 renal): 2.98 µM
TGI (786-0 renal): 11 µM
GI50 (HT29 colon): 3.1 µM
TGI (HT29 colon): 18.3 µM
GI50 (EKVX NSCLC): 1.25 µM
TGI (EKVX NSCLC): 8.61 µM
GI50 (TK-10 renal): 4.33 µM
TGI (TK-10 renal): > 100 µM
